# Laboratory results: patent publication US9598423B2 (BRISTOL-MYERS SQUIBB COMPANY, priority 2013, dated 2017)
# Legend:
# CK1ε = CK1ε (Homo sapiens (Human), UniProt P49674); test: CK1ε kinase assay (Caliper LABCHIP electrophoretic separation of fluoresceinated peptide substrate and product); type: biochemical; conditions: 200 pM CK1ε, 50 μM ATP, 1.5 μM peptide substrate, 22 hours at room temperature; read-out: CK1ε (IC50)
# Method in brief: (§1)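 Each reaction was incubated 22 hours at room temperature and terminated with EDTA. Read-out was microfluidic electrophoretic separation of fluoresceinated substrate and phospho-product.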
# CK1δ = CK1δ (Homo sapiens (Human), UniProt P48730); test: CK1δ kinase assay (Caliper LABCHIP electrophoretic separation of fluoresceinated peptide substrate and product); type: biochemical; conditions: 200 pM CK1δ, 50 μM ATP, 1.5 μM peptide substrate, 22 hours at room temperature; read-out: CK1δ (IC50)
# CK1δ, sequence (P48730 whole entry): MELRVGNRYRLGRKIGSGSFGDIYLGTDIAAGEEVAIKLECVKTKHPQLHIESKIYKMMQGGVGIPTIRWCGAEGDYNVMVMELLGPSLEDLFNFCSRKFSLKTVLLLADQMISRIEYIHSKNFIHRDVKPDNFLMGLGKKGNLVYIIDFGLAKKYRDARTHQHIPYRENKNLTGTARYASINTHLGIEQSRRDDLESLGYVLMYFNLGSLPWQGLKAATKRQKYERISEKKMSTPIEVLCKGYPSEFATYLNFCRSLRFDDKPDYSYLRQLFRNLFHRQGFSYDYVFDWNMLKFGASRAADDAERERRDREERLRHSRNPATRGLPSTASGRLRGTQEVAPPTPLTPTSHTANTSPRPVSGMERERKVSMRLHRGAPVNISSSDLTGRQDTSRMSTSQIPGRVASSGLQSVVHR
# Method in brief: as §1
# CK1ε, sequence (P49674 whole entry): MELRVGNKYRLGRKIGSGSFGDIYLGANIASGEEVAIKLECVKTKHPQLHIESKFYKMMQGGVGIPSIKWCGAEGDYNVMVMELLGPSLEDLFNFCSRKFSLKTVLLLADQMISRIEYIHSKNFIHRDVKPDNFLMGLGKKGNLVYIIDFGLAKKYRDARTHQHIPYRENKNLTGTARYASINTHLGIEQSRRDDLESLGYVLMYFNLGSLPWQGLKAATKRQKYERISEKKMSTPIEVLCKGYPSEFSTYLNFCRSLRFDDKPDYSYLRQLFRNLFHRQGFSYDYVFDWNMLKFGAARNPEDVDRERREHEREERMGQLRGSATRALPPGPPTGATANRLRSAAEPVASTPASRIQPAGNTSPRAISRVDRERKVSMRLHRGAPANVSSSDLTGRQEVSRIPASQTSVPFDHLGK
IC50 (CK1ε),IC50 (CK1δ),SMILES
0.01 to 10 nM,0.01 to 10 nM,"NC(=O)c1c(-c2cccc(Cl)c2)nn2c1CN(C(=O)Nc1ccc(N3CCCCC3)cc1)C[C@H]2CF [Compound A10, (S)-2-(3-Chlorophenyl)-7-(fluoromethyl)-N^5-(4-(piperidin-1-yl)phenyl)-6,7-dihydropyrazolo[1,5-a]pyrazine-3,5(4H)-dicarboxamide]"
0.01 to 10 nM,10 to 100 nM,"N#Cc1ccc(NC(=O)N2CCn3nc(-c4cc(F)c5cn[nH]c5c4)c(C(N)=O)c3C2)cc1Cl [Compound 323, N^5-(3-Chloro-4-cyanophenyl)-2-(4-fluoro-1H-indazol-6-yl)-6,7-dihydropyrazolo[1,5-a]pyrazine-3,5(4H)-dicarboxamide]"
0.01 to 10 nM,0.01 to 10 nM,"N#Cc1ccc(NC(=O)N2CCn3nc(-c4cccc(Cl)c4)c(C(N)=O)c3C2)cc1OC(F)(F)F [Compound A39, 2-(3-Chlorophenyl)-N^5-(4-cyano-3-(trifluoromethoxy)phenyl)-6,7-dihydropyrazolo[1,5-a]pyrazine-3,5(4H)-dicarboxamide]"
0.01 to 10 nM,0.01 to 10 nM,"Cc1nc2cc(-c3nn4c(c3C(N)=O)CN(C(=O)Nc3ccc(C#N)cc3)CC4)cc(Cl)c2o1 [Compound 311, 2-(7-Chloro-2-methylbenzo[d]oxazol-5-yl)-N^5-(4-cyanophenyl)-6,7-dihydropyrazolo[1,5-a]pyrazine-3,5(4H)-dicarboxamide]"
0.01 to 10 nM,0.01 to 10 nM,"Cc1cc(NC(=O)N2CCn3nc(-c4ccc(F)c(Cl)c4)c(C(N)=O)c3C2)ccc1C#N [Compound A48, 2-(3-Chloro-4-fluorophenyl)-N^5-(4-cyano-3-methylphenyl)-6,7-dihydropyrazolo[1,5-a]pyrazine-3,5(4H)-dicarboxamide]"
0.01 to 10 nM,0.01 to 10 nM,"N#Cc1ccc(NC(=O)N2Cc3c(C(N)=O)c(-c4ccc(F)c(Cl)c4)nn3[C@H]3COC[C@H]32)cc1 [Compound 347, (5aS,8aR)-2-(3-Chloro-4-fluorophenyl)-N^5-(4-cyanophenyl)-5a,6,8,8a-tetrahydrofuro[3,4-e]pyrazolo[1,5-a]pyrazine-3,5(4H)-dicarboxamide]"
10 to 100 nM,10 to 100 nM,"N#Cc1ccc(NC(=O)N2Cc3c(C(N)=O)c(-c4ccc(F)c(Cl)c4)nn3C(C(=O)NC3CCOCC3)C2)cc1 (single isomer, unassigned) [Compound A29, 2-(3-Chloro-4-fluorophenyl)-N^5-(4-cyanophenyl)-N^7-(tetrahydro-2H-pyran-4-yl)-6,7-dihydropyrazolo[1,5-a]pyrazine-3,5,7(4H)-tricarboxamide]"
100 to 2000 nM,100 to 2000 nM,"CC1CN(C(=O)Nc2ccc(C#N)cc2)Cc2c(C(N)=O)c(-c3cccc(F)c3)nn21 (single isomer, unassigned) [Compound A79, N^5-(4-Cyanophenyl)-2-(3-fluorophenyl)-7-methyl-6,7-dihydropyrazolo[1,5-a]pyrazine-3,5(4H)-dicarboxamide]"

# The remaining lines, values behind:
SMILES,IC50 (CK1ε),IC50 (CK1δ)
"CC(C)(C)NC(=O)N1CCn2nc(-c3cc(Cl)cc(Cl)c3)c(C(N)=O)c2C1 [Compound 117, N^5-(tert-Butyl)-2-(3,5-dichlorophenyl)-6,7-dihydropyrazolo[1,5-a]pyrazine-3,5(4H)-dicarboxamide]",0.01 to 10 nM,0.01 to 10 nM
NC(=O)c1c(-c2ccc(Cl)c(Cl)c2)nn2c1CN(C(=O)Nc1ccc(Cl)c(Cl)c1)CC2 [Compound 209],0.01 to 10 nM,0.01 to 10 nM
"COc1cc(F)cc(-c2nn3c(c2C(N)=O)CN(C(=O)Nc2ccc(C#N)cc2)CC3)c1 [Compound 285, N^5-(4-Cyanophenyl)-2-(3-fluoro-5-methoxyphenyl)-6,7-dihydropyrazolo[1,5-a] pyrazine-3,5(4H)-dicarboxamide]",0.01 to 10 nM,0.01 to 10 nM
"COc1ccc(Cl)cc1-c1nn2c(c1C(N)=O)CN(C(=O)Nc1ccc(C#N)cc1)CC2 [Compound 278, 2-(5-Chloro-2-methoxyphenyl)-N^5-(4-cyanophenyl)-6,7-dihydropyrazolo[1,5-a] pyrazine-3,5(4H)-dicarboxamide]",10 to 100 nM,10 to 100 nM
"Cc1cc(-c2nn3c(c2C(N)=O)CN(C(=O)Nc2ccc4c(c2)OC(F)(F)O4)CC3)ccc1F [Compound 247, N^5-(2,2-Difluorobenzo [d][1,3]dioxol-5-yl)-2-(4-fluoro-3-methylphenyl)-6,7-dihydropyrazolo[1,5-a]pyrazine-3,5(4H)-dicarboxamide]",0.01 to 10 nM,0.01 to 10 nM
"NC(=O)c1c(-c2ccc(F)c(Cl)c2)nn2c1CN(C(=O)Nc1cc(Cl)cc(Cl)c1)CC2 [Compound 173, 2-(3-Chloro-4-fluorophenyl)-N^5-(3,5-dichlorophenyl)-6,7-dihydropyrazolo[1,5-a] pyrazine-3,5(4H)-dicarboxamide]",0.01 to 10 nM,0.01 to 10 nM
"Cc1cc(NC(=O)N2CCn3nc(-c4ccc(Cl)c(Cl)c4)c(C(N)=O)c3C2)ccc1C#N [Compound 214, N^5-(4-Cyano-3-methylphenyl)-2-(3,4-dichlorophenyl)-6,7-dihydropyrazolo[1,5-a] pyrazine-3,5(4H)-dicarboxamide]",0.01 to 10 nM,0.01 to 10 nM
"Cc1cc(F)cc(-c2nn3c(c2C(N)=O)CN(C(=O)Nc2ccc4c(c2)OC(F)(F)O4)CC3)c1 [Compound 227, N^5-(2,2-Difluorobenzo[d] [1,3]dioxol-5-yl)-2-(3-fluoro-5-methylphenyl)-6,7-dihydropyrazolo[1,5-a] pyrazine-3,5(4H)-dicarboxamide]",0.01 to 10 nM,0.01 to 10 nM
"NC(=O)c1c(-c2cccc(F)c2)nn2c1CN(C(=O)NC1CCCC1)CC2 [Compound 9, N^5-Cyclopentyl-2-(3-fluorophenyl)-6,7-dihydropyrazolo[1,5-a]pyrazine-3,5(4H)-dicarboxamide]",0.01 to 10 nM,0.01 to 10 nM
"NC(=O)c1ccc(NC(=O)N2CCn3nc(-c4ccc(F)c(Cl)c4)c(C(N)=O)c3C2)cc1 [Compound 180, N^5-(4-Carbamoylphenyl)-2-(3-chloro-4-fluorophenyl)-6,7-dihydropyrazolo[1,5-a] pyrazine-3,5(4H)-dicarboxamide]",0.01 to 10 nM,0.01 to 10 nM
"COc1cccc(NC(=O)N2CCn3nc(-c4cccc(F)c4)c(C(N)=O)c3C2)c1 [Compound 73, 2-(3-Fluorophenyl)-N^5-(3-methoxyphenyl)-6,7-dihydropyrazolo[1,5-a]pyrazine-3,5(4H)-dicarboxamide]",0.01 to 10 nM,0.01 to 10 nM
"N#Cc1ccc(NC(=O)N2CCn3nc(-c4cc(Cl)ccc4Cl)c(C(N)=O)c3C2)cc1 [Compound 272, N^5-(4-Cyanophenyl)-2-(2,5-dichlorophenyl)-6,7-dihydropyrazolo[1,5-a] pyrazine-3,5(4H)-dicarboxamide]",0.01 to 10 nM,0.01 to 10 nM
"N#Cc1ccc(NC(=O)N2CCn3nc(-c4cc(Cl)c(F)c(Cl)c4)c(C(N)=O)c3C2)cc1 [Compound 259, N^5-(4-Cyanophenyl)-2-(3,5-dichloro-4-fluorophenyl)-6,7-dihydropyrazolo[1,5-a]pyrazine-3,5(4H)-dicarboxamide]",0.01 to 10 nM,0.01 to 10 nM
"CC(C)(C)NC(=O)N1CCn2nc(-c3cnc4ccccc4c3)c(C(N)=O)c2C1 [Compound 119, N^5-(tert-Butyl)-2-(quinolin-3-yl)-6,7-dihydropyrazolo[1,5-a]pyrazine-3,5(4H)-dicarboxamide]",0.01 to 10 nM,0.01 to 10 nM
